Measured values as given in patent publication US8754067B2, “22-haloacetoxy-homopregnacalciferol analogs and their uses” (Wisconsin Alumni Research Foundation, priority 2010, dated 2014).

Assays:
[1] = biological target: T1, full-length recombinant rat vitamin D receptor (Rattus norvegicus, UniProt P13053); test: Vitamin D receptor binding, competition with [3H]-1,25(OH)2D3; conditions: FIG. 1
T1 construct: Full-length recombinant rat receptor was expressed in E. coli; histidine tag (C); made in house; host or cells: E. coli BL21 (DE3) Codon Plus RIL
T1 sequence (P13053 1-423): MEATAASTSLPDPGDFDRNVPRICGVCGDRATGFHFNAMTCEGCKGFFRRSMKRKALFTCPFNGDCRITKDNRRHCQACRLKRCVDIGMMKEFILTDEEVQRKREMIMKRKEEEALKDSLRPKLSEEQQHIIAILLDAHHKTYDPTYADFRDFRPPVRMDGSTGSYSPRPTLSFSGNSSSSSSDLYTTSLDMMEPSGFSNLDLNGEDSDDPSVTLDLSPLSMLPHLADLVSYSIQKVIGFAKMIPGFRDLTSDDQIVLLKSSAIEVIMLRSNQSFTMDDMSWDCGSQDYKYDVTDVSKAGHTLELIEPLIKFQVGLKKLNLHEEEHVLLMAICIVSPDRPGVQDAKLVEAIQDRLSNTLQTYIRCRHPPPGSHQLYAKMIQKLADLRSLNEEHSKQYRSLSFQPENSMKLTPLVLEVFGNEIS
Method: Full-length recombinant rat receptor was expressed in E. coli BL21 (DE3) Codon Plus RIL cells and purified to homogeneity using two different column chromatography systems. The first system was a nickel affinity resin that utilizes the C-terminal histidine tag on this protein. The protein that was eluted from this resin was further purified using ion exchange chromatography (S-Sepharose Fast Flow). Aliquots of the purified protein were quick frozen in liquid nitrogen and stored at −80° C. until use. For use in binding assays, the protein was diluted in TEDK50 (50 mM Tris, 1.5 mM EDTA, pH7.4, 5 mM DTT, 150 mM KCl) with 0.1% Chaps detergent. The receptor protein and ligand concentration was optimized such that no more than 20% of the added radiolabeled ligand was bound to the receptor.
Radiolabeled and unlabeled ligands were added to 100 mcl of the diluted protein at a final ethanol concentration of ≦10%, mixed and incubated overnight on ice to reach binding equilibrium. The following day, 100 mcl of hydroxylapatite slurry (50%) was added to each tube and mixed at 10-minute intervals for 30 minutes. […] After the final wash, the pellets were transferred to scintillation vials containing 4 ml of Biosafe II scintillation cocktail, mixed and placed in a scintillation counter. Total binding was determined from the tubes containing only radiolabeled ligand.

HL-60 leukemia cells [2] = test: HL-60 differentiation (nitro blue tetrazolium reduction); type: cell-based, human; conditions: FIG. 2
Method: The study drugs were dissolved in ethanol and the concentrations determined using UV spectrophotometry. Serial dilutions were prepared so that a range of drug concentrations could be tested without changing the final concentration of ethanol (≦0.2%) present in the cell cultures.
Human promyelocytic leukemia (HL60) cells were grown in RPMI-1640 medium containing 10% fetal bovine serum. The cells were incubated at 37° C. in the presence of 5% CO2.
HL60 cells were plated at 1.2×10^5 cells/ml. Eighteen hours after plating, cells in duplicate were treated with drug. Four days later, the cells were harvested and a nitro blue tetrazolium reduction assay was performed (Collins et al., 1979; J. Exp. Med. 149:969-974). The percentage of differentiated cells was determined by counting a total of 200 cells and recording the number that contained intracellular black-blue formazan deposits. Verification of differentiation to monocytic cells was determined by measuring phagocytic activity (data not shown).

[3] = test system: 24-hydroxylase (24 Ohase) gene promoter in ROS 17/2.8 (bone) cells; test: In vitro transcription assay (luciferase reporter); type: cell-based; conditions: ROS 17/2.8 cells, 16 hours after dosing; FIG. 3; read-out: EC50, transcriptional activity in bone cells
Method: Transcription activity was measured in ROS 17/2.8 (bone) cells that were stably transfected with a 24-hydroxylase (24 Ohase) gene promoter upstream of a luciferase reporter gene (Arbour et al., 1998). Cells were given a range of doses. Sixteen hours after dosing the cells were harvested and luciferase activities were measured using a luminometer. RLU=relative luciferase units.

[4] = test system: bone calcium mobilization; test: Bone calcium mobilization (serum calcium) in vitamin D-deficient rats; type: in vivo, rat; conditions: vitamin D-deficient rats on 0.02% Ca diet, FIG. 7
Method: (§1) Male, weanling Sprague-Dawley rats were placed on Diet 11 (Suda et al, J. Nutr. 100:1049, 1970) (0.47% Ca)+AEK oil for one week followed by Diet 11 (0.02% Ca)+AEK oil for 3 weeks. The rats were then switched to the same diet containing 0.47% Ca for one week followed by two weeks on the same diet containing 0.02% Ca. Dose administration began during the last week on 0.02% calcium diet. Four consecutive intraperitoneal (ip) doses were given approximately 24 hours apart. Twenty-four hours after the last dose, blood was collected from the severed neck and the concentration of serum calcium determined by atomic absorption spectrometry as a measure of bone calcium mobilization. The first 10 cm of the intestine was also collected for intestinal calcium transport analysis using the everted gut sac method.

[5] = test system: intestinal calcium transport; test: Intestinal calcium transport (everted gut sac) in vitamin D-deficient rats; type: in vivo, rat; conditions: 4 consecutive ip doses, FIG. 8
Method: as §1

[6] = Body weight of dosed animals; type: in vivo, rat; conditions: various doses, throughout the test period; FIG. 9
Method: as §1

HL-60 leukemia cells [7] = test: Cell viability, HL-60 leukemia cells; type: cell-based, human; conditions: four days growth, methylene blue; FIG. 4A/4B
Method: (§2) Various cell lines were plated, administered a range of drug concentrations one time, allowed to grow for four days and then the number of cells present counted and expressed as a percentage of those present in the vehicle control plates. […] The number of live cells was expressed as a percentage of the total present. Each assay was done in duplicate.

[8] = test system: H-82 lung carcinoma cells; test: Cell viability, H-82 lung carcinoma cells; type: cell-based; conditions: four days growth, methylene blue; FIG. 5A/5B
Method: as §2

DU-145 prostate cells = test: Cell viability, DU-145 prostate cells; type: cell-based; conditions: four days growth, methylene blue; FIG. 6A/6B
Method: as §2

Compound	Ki ([1]; full-length recombinant rat VDR) [nM]	times less active than 1α,25-dihydroxyvitamin D3 in VDR binding ([1]; relative to natural hormone) [times]	HL-60 cell differentiation activity (HL-60 leukemia cells [2])	EC50 [3] [nM]	bone calcium mobilization (serum calcium) ([4]; 105,300 pmol/day ip for 4 consecutive days)	intestinal calcium transport activity ([5]; 35,100 pmol/rat)	change in body weight [6]	cell viability of HL-60 leukemia cells (HL-60 leukemia cells [7])	cell viability of H-82 lung carcinoma cells [8]	cell viability of DU-145 prostate cells (DU-145 prostate cells)	EC50 (HL-60 leukemia cells [2]; four days after treatment, read-out: EC50, HL-60 cell differentiation) [nM]	bone calcium mobilization (serum calcium) ([4]; 780 pmol, 4 consecutive ip doses)	intestinal calcium transport activity ([5]; 780 pmol)
C=C1CC[C@H](O)C/C1=C/C=C1\CCC[C@]2(C)[C@@H]([C@H](C)COC(=O)CBr)CC[C@@H]12 [AB-47, 22-bromoacetoxy-homopregnacalciferol]	3	100	does not promote HL60 differentiation	> 1000	little or no mobilization of bone calcium	little to no activity	substantially maintain their body weight	kills HL-60 leukemia cells	kills H-82 lung carcinoma cells	neither AB-47 nor 1,25(OH)2D3 have any significant effect			
C=C1/C(=C\C=C2/CCC[C@]3(C)[C@@H]([C@H](C)CCCC(C)(C)O)CC[C@@H]23)C[C@@H](O)C[C@@H]1O [1,25(OH)2D3, 1α,25-dihydroxyvitamin D3, reference compound]								does not have any significant effect	does not have any significant effect	neither AB-47 nor 1,25(OH)2D3 have any significant effect	2	significant increases in serum calcium	significant increase in activity
